# Assay results taken from patent US12023399B2, “Cleansing composition with pyrrolidone carboxylic acid” (The Procter & Gamble Company, priority 2021, dated 2024).
# Test system: Staphylococcus aureus (ATCC #6538)
# Assay: S. aureus growth on pH adjusted TSA plates
# Format: cell-based
# Conditions: TSA plate pH 4.51 supplemented with 0.03% PCA, ~48 hrs at 33° C.; pH 5.99 plate without PCA shows colonies
# Description: The Staphylococcus aureus (ATCC #6538) bacteria cultures used herein can be created from commercially available Trypticase Soy Agar (TSA) plates that are streaked and incubated 17-20 hours at 35° C.±2° C. The resulting bacteria are grown in a conventional saline buffer solution with the optical density adjusted to deliver 10^9 to 10^10 cfu/mL. A sample of the bulk culture can be diluted 1:1,000,000 in saline buffer. 100 ul of the dilute bacteria culture is streak plated onto a TSA plate that is pH adjusted to pH 5.99 or onto a TSA plate that is pH adjusted to pH 4.51 and supplemented with 0.03% PCA. Plates are incubated ˜48 hrs at 33° C.±2° C. and photographed for growth as shown in FIGS. 2A (with pH 5.99) and 2B (with pH 4.5 and 0.03% PCA).
smiles,measurement,value
"O=C1CC[C@@H](C(=O)O)N1 [PCA, pyrrolidone carboxylic acid]",S. aureus colonies after incubation,no colonies are observed
